{"source": "patent US8987247B2", "about": "“Monoacylglycerol lipase inhibitors for the treatment of metabolic diseases and related disorders” (Janssen Pharmaceutica NV, priority 2011, dated 2015)", "key": {"[1]": {"system": "Sprague-Dawley rats", "test": "Effect on Food Intake after Food Deprivation in Rats", "format": "in vivo, rat", "settings": "30 mg/kg p.o., rats fasted 18 h, N=6/group", "protocol": "In rats, food deprivation or restriction is a standard method for inducing increased food intake. In other words, depriving the rats of food and then subsequently presenting them with food results, predictably in over-eating (also referred to as rebound hyperphagia). To study the effect of compounds of formula (I) on feeding behavior, rats were treated after food deprivation.\nAdult, male Sprague-Dawley rats were single-housed on a 12 h light/dark cycle and received food and water ad libitum, except where otherwise indicated. Rats were allowed to acclimate to the housing room for at least 1 week prior to testing. One day prior to treatment, each rat was transferred to a new cage that was free of bedding and contained a wire grid floor, and all food was removed. Rats were fasted for 18 h before treatment. Rats were divided into two groups (N=6/group) and received either a compound of formula (I) at 30 mg/kg, p.o. or vehicle. At dosing, all rats received a pre-measured amount of standard rodent chow. After 30 min, the food was re-weighed to determine the amount consumed."}, "[2]": {"system": "rats, strain CD(SD)IGS", "test": "5-Day Repeat Dose with Weight Monitoring in Rats", "format": "in vivo, rat", "settings": "for Mean body weight Change: Day −1 to Day 4", "experimental": "Male and Female rats, strain CD(SD)IGS (Charles River Laboratories International, Inc., MA) of 8 weeks of age were individually housed and maintained on a 12-hr light/dark cycle. Rats were fed ad libitum with a standard diet (Rodent Diet 5001, PMI Nutrition International, Indiana). […] Rats were weighed predose and on days 1 and 4. Clinical observations were recorded prior to dosing, at 2 hours post-dose each day. Rats were fasted overnight on Day 4 and blood was collected on Day 5 from the retro-orbital sinus following anesthesia with a 70/30% carbon dioxide/oxygen mixture. Blood was collected into tubes containing tripotassium EDTA for hematology panel and no additive for serum chemistry determinations. Rats were euthanized by CO2 inhalation and thoracic and abdominal cavities were examined and weights of liver determined."}, "[3]": {"system": "beagle dogs", "test": "5-Day Repeat Dose with Weight Monitoring in Dogs", "format": "in vivo, dog", "design": "key to Clinical Observations: Stained urogenital area (no. of dogs) / Body Temperature Change / Body Weight Change: —: No noteworthy findings", "settings": "for Body Weight Change: 5 days, Day-1 to Day 5; for Body Temperature Change: 4 hours postdose on Day 0", "protocol": "Male and female beagle dogs, 15 months of age, were individually housed and maintained on a 12-hourlight/dark cycle. Dogs were given 300 g/day of Advanced Protocol™ Non-Certified High Density Canine Diet 5L18 (pMfID Nutrition International). Food was provided 0.5 to 2 hours post-dose, except on days of toxicokinetic blood sampling when food was provided after the 4 hour time point. Canned food was supplemented beginning on day 3. A compound of formula (I) was administered orally via gavage using a stomach tube once daily (initiating on Day 0) to male and female dogs (1 each per dose) for 5 consecutive days at 0, 5, 15 and 45 mg/kg/day. Dogs were weighed on Day-1 and Day 5 prior to necropsy. Food consumption was determined 3 days predose and then daily. Body temperature was measured at 0 (predose), 4 and 24 hours on Days 0 and 4. Clinical observations were recorded predose and 2 hours postdose daily. Dogs were fasted overnight prior to blood collection. Blood was collected from all dogs predose on Day-8 and prior to dosing on Day 4 from the jugular vein. Blood was collected into tubes containing tripotassium EDTA for hematology and no additive for serum chemistry determinations. At necropsy, the thoracic and abdominal cavities were examined."}}, "note": "Marks after values point to notes of the source that are not given here.", "data": [{"smiles": "O=C(c1ccc2c(ccn2-c2ccc(F)cc2)c1)N1CC(N2CCN(C(=O)c3nccs3)CC2)C1", "note": "[Cpd 1, 1-(4-Fluorophenyl)-5-({3-[4-(1,3-thiazol-2-ylcarbonyl)piperazin-1-yl]azetidin-1-yl}carbonyl)-1H-indole]", "values": [{"measurement": "Food Intake (g of food over 30 min)", "setting": "[1]", "result": "1.60 ± 1.02", "unit": "g"}, {"measurement": "Mean body weight", "setting": "[2]; female rats, 15 mg/kg/day oral, Day 4", "result": "226.98 +/− 10.29"}, {"measurement": "Mean body weight", "setting": "[2]; female rats, 15 mg/kg/day oral, Day −1 (predose)", "result": "203.86 +/− 6.13"}, {"measurement": "Mean body weight", "setting": "[2]; female rats, 50 mg/kg/day oral, Day −1 (predose)", "result": "199.16 +/− 5.66"}, {"measurement": "Mean body weight Change", "setting": "[2]; female rats, 50 mg/kg/day oral", "result": "8.54 +/− 2.32"}, {"measurement": "Mean body weight", "setting": "[2]; male rats, 15 mg/kg/day oral, Day 4", "result": "301.94 +/− 7.52"}, {"measurement": "Mean body weight", "setting": "[2]; male rats, 15 mg/kg/day oral, Day −1 (predose)", "result": "273.34 +/− 4.80"}, {"measurement": "Mean body weight Change", "setting": "[2]; male rats, 15 mg/kg/day oral", "result": "28.60 +/− 2.90"}, {"measurement": "Mean body weight", "setting": "[2]; male rats, 50 mg/kg/day oral, Day 4", "result": "278.78 +/− 6.95"}, {"measurement": "Mean body weight", "setting": "[2]; male rats, 50 mg/kg/day oral, Day −1 (predose)", "result": "272.66 +/− 6.92"}, {"measurement": "Mean body weight Change", "setting": "[2]; male rats, 50 mg/kg/day oral", "result": "6.10 +/− 3.56*"}, {"measurement": "Clinical Observations: Emesis (no. of dogs)", "setting": "[3]; dog F:1, 5 mg/kg daily oral", "result": 1}, {"measurement": "Clinical Observations: Feces, absent (no. of dogs)", "setting": "[3]; dog F:1, 5 mg/kg daily oral", "result": 1}, {"measurement": "Clinical Observations: Feces, decrease (no. of dogs)", "setting": "[3]; dog F:1, 5 mg/kg daily oral", "result": 1}, {"measurement": "Clinical Observations: Stained urogenital area (no. of dogs)", "setting": "[3]; dog F:1, 5 mg/kg daily oral", "result": "—"}, {"measurement": "Food Consumption", "setting": "[3]; dog F:1, 5 mg/kg daily oral", "result": "↓"}, {"measurement": "Body Weight Change", "setting": "[3]; dog F:1, 5 mg/kg daily oral", "result": "−0.90"}, {"measurement": "Body Temperature Change", "setting": "[3]; dog F:1, 5 mg/kg daily oral", "result": "−3.2"}, {"measurement": "Clinical Observations: Emesis (no. of dogs)", "setting": "[3]; dog F:1, 15 mg/kg daily oral", "result": 1}, {"measurement": "Clinical Observations: Feces, absent (no. of dogs)", "setting": "[3]; dog F:1, 15 mg/kg daily oral", "result": 1}, {"measurement": "Clinical Observations: Feces, decrease (no. of dogs)", "setting": "[3]; dog F:1, 15 mg/kg daily oral", "result": 1}, {"measurement": "Clinical Observations: Stained urogenital area (no. of dogs)", "setting": "[3]; dog F:1, 15 mg/kg daily oral", "result": 1}, {"measurement": "Food Consumption", "setting": "[3]; dog F:1, 15 mg/kg daily oral", "result": "↓"}, {"measurement": "Body Weight Change", "setting": "[3]; dog F:1, 15 mg/kg daily oral", "result": "—"}, {"measurement": "Body Temperature Change", "setting": "[3]; dog F:1, 15 mg/kg daily oral", "result": "−1.6"}, {"measurement": "Clinical Observations: Emesis (no. of dogs)", "setting": "[3]; dog F:1, 45 mg/kg daily oral", "result": 1}, {"measurement": "Clinical Observations: Feces, absent (no. of dogs)", "setting": "[3]; dog F:1, 45 mg/kg daily oral", "result": 1}, {"measurement": "Clinical Observations: Feces, decrease (no. of dogs)", "setting": "[3]; dog F:1, 45 mg/kg daily oral", "result": 1}, {"measurement": "Clinical Observations: Stained urogenital area (no. of dogs)", "setting": "[3]; dog F:1, 45 mg/kg daily oral", "result": 1}, {"measurement": "Food Consumption", "setting": "[3]; dog F:1, 45 mg/kg daily oral", "result": "↓"}, {"measurement": "Body Weight Change", "setting": "[3]; dog F:1, 45 mg/kg daily oral", "result": "−1.28"}, {"measurement": "Body Temperature Change", "setting": "[3]; dog F:1, 45 mg/kg daily oral", "result": "—"}, {"measurement": "Clinical Observations: Emesis (no. of dogs)", "setting": "[3]; dog M:1, 5 mg/kg daily oral", "result": 1}, {"measurement": "Clinical Observations: Feces, absent (no. of dogs)", "setting": "[3]; dog M:1, 5 mg/kg daily oral", "result": 1}, {"measurement": "Clinical Observations: Feces, decrease (no. of dogs)", "setting": "[3]; dog M:1, 5 mg/kg daily oral", "result": 1}, {"measurement": "Clinical Observations: Stained urogenital area (no. of dogs)", "setting": "[3]; dog M:1, 5 mg/kg daily oral", "result": "—"}, {"measurement": "Food Consumption", "setting": "[3]; dog M:1, 5 mg/kg daily oral", "result": "↓"}, {"measurement": "Body Weight Change", "setting": "[3]; dog M:1, 5 mg/kg daily oral", "result": "−1.10"}, {"measurement": "Body Temperature Change", "setting": "[3]; dog M:1, 5 mg/kg daily oral", "result": "−3.4"}, {"measurement": "Clinical Observations: Emesis (no. of dogs)", "setting": "[3]; dog M:1, 15 mg/kg daily oral", "result": 1}, {"measurement": "Clinical Observations: Feces, absent (no. of dogs)", "setting": "[3]; dog M:1, 15 mg/kg daily oral", "result": 1}, {"measurement": "Clinical Observations: Feces, decrease (no. of dogs)", "setting": "[3]; dog M:1, 15 mg/kg daily oral", "result": 1}, {"measurement": "Clinical Observations: Stained urogenital area (no. of dogs)", "setting": "[3]; dog M:1, 15 mg/kg daily oral", "result": 1}, {"measurement": "Food Consumption", "setting": "[3]; dog M:1, 15 mg/kg daily oral", "result": "↓"}, {"measurement": "Body Weight Change", "setting": "[3]; dog M:1, 15 mg/kg daily oral", "result": "−0.74"}, {"measurement": "Body Temperature Change", "setting": "[3]; dog M:1, 15 mg/kg daily oral", "result": "—"}, {"measurement": "Clinical Observations: Emesis (no. of dogs)", "setting": "[3]; dog M:1, 45 mg/kg daily oral", "result": 1}, {"measurement": "Clinical Observations: Feces, absent (no. of dogs)", "setting": "[3]; dog M:1, 45 mg/kg daily oral", "result": 1}, {"measurement": "Clinical Observations: Feces, decrease (no. of dogs)", "setting": "[3]; dog M:1, 45 mg/kg daily oral", "result": 1}, {"measurement": "Clinical Observations: Stained urogenital area (no. of dogs)", "setting": "[3]; dog M:1, 45 mg/kg daily oral", "result": 1}, {"measurement": "Food Consumption", "setting": "[3]; dog M:1, 45 mg/kg daily oral", "result": "↓"}, {"measurement": "Body Weight Change", "setting": "[3]; dog M:1, 45 mg/kg daily oral", "result": "−0.78"}, {"measurement": "Body Temperature Change", "setting": "[3]; dog M:1, 45 mg/kg daily oral", "result": "−1.9"}]}]}
